Patent US6352958B1, “Cycloimido-substituted benzofused heterocyclic herbicides” (FMC Corporation, priority 1997, dated 2002)

Columns and labels:
Type in all cases: in vivo
[1] = system: soybean (Glycine max var. Winchester); experiment: Postemergence herbicidal activity, soybean; conditions: rate of application 0.3 Kg/Ha, rated after 12-17 days
Experimental: (§1) The benzofused heterocyclic compounds of this invention were tested for pre- and postemergence herbicidal activity using a variety of crops and weeds. The test plants included soybean (Glycine max var. Winchester), field corn (Zea mays var. Pioneer 3732), wheat (Triticum aestivum var. Lew), morningglory (Ipomea lacunosa or Ipomea hederacea), velvetleaf (Abutilon theophrasti), green foxtail (Setaria viridis), Johnsongrass (Sorghum halepense), blackgrass (Aloepecurus myosuroides), common chickweed (Stellaria media), and common cocklebur (Xanthium strumarium L.).
(§2) For preemergence testing, two disposable fiber flats (8 cm×15 cm×25 cm) for each rate of application of each candidate herbicide were filled to an approximate depth of 6.5 cm with steam-sterilized sandy loam soil. The soil was leveled and impressed with a template to provide five evenly spaced furrows 13 cm long and 0.5 cm deep in each flat. Seeds of soybean, wheat, corn, green foxtail, and johnsongrass were planted in the furrows of the first flat, and seeds of velvetleaf, morningglory, common chickweed, cocklebur, and blackgrass were planted in the furrows of the second flat. The five-row template was employed to firmly press the seeds into place. A topping soil of equal portions of sand and sandy loam soil was placed uniformly on top of each flat to a depth of approximately 0.5 cm. Flats for postemergence testing were prepared in the same manner except that they were planted 9-14 days prior to the preemergence flats and were placed in a greenhouse and watered, thus allowing the seeds to germinate and the foliage to develop.
(§3) In both pre- and postemergence tests, a stock solution of the candidate herbicide was prepared by dissolving 0.27 g of the compound in 20 mL of water/acetone (50/50) containing 0.5% v/v sorbitan monolaurate. For an application rate of 3000 g/ha of herbicide a 10 mL portion of the stock solution was diluted with water/acetone (50/50) to 45 mL.
(§4) The preemergence flats were initially subjected to a light water spray. The four flats were placed two by two along a conveyor belt (i.e., the two preemergence followed by the two postemergence flats). The conveyor belt fed under a spray nozzle mounted about ten inches above the post-emergent foliage. The preemergent flats were elevated on the belt so that the soil surface was at the same level below the spray nozzle as the foliage canopy of the postemergent plants. The spray of herbicidal solution was commenced and once stabilized, the flats were passed under the spray at a speed to receive a coverage equivalent of 100 L/ha. At this coverage the application rates are those shown in the above table for the individual herbicidal solutions. The preemergence flats were watered immediately thereafter, placed in the greenhouse and watered regularly at the soil surface. The postemergence flats were immediately placed in the green-house and not watered until 24 hours after treatment with the test solution. Thereafter they were regularly watered at ground level. After 12-17 days the plants were examined and the phytotoxicity data were recorded.
(§5) Phytotoxicity data were taken as percent control. Percent control was determined by a method similar to the 0 to 100 rating system disclosed in “Research Methods in Weed Science,” 2nd ed., B. Truelove, Ed.; Southern Weed Science Society; Auburn University, Auburn, Ala., 1977.

[2] = system: wheat (Triticum aestivum var. Lew); experiment: Postemergence herbicidal activity, wheat; conditions: rate of application 0.3 Kg/Ha, rated after 12-17 days
Experimental: as §1, §2, §3, §4, §5

[3] = system: velvetleaf (Abutilon theophrasti); experiment: Postemergence herbicidal activity, velvetleaf; conditions: rate of application 0.3 Kg/Ha, rated after 12-17 days
Experimental: as §1, §2, §3, §4, §5

[4] = system: wheat (Triticum aestivum var. Lew); experiment: Preemergence herbicidal activity, wheat; conditions: Rate of Application 0.3 Kg/Ha, examined after 12-17 days
Experimental: as §1, §2, §3, §4, §5

[5] = system: common chickweed (Stellaria media); experiment: Preemergence herbicidal activity, chickweed; conditions: Rate of Application 0.3 Kg/Ha, examined after 12-17 days
Experimental: as §1, §2, §3, §4, §5

[6] = system: green foxtail (Setaria viridis); experiment: Preemergence herbicidal activity, green foxtail; conditions: Rate of Application 0.3 Kg/Ha, examined after 12-17 days
Experimental: as §1, §2, §3, §4, §5

[7] = system: Johnsongrass (Sorghum halepense); experiment: Postemergence herbicidal activity, johnsongrass; conditions: rate of application 0.3 Kg/Ha, rated after 12-17 days
Experimental: as §1, §2, §3, §4, §5

[8] = system: velvetleaf (Abutilon theophrasti); experiment: Preemergence herbicidal activity, velvetleaf; conditions: Rate of Application 0.3 Kg/Ha, examined after 12-17 days
Experimental: as §1, §2, §3, §4, §5

[9] = system: Johnsongrass (Sorghum halepense); experiment: Preemergence herbicidal activity, johnsongrass; conditions: Rate of Application 0.3 Kg/Ha, examined after 12-17 days
Experimental: as §1, §2, §3, §4, §5

[10] = system: field corn (Zea mays var. Pioneer 3732); experiment: Postemergence herbicidal activity, corn; conditions: rate of application 0.3 Kg/Ha, rated after 12-17 days
Experimental: as §1, §2, §3, §4, §5

[11] = system: common cocklebur (Xanthium strumarium L.); experiment: Preemergence herbicidal activity, cocklebur; conditions: Rate of Application 0.3 Kg/Ha, examined after 12-17 days
Experimental: as §1, §2, §3, §4, §5

[12] = system: common cocklebur (Xanthium strumarium L.); experiment: Postemergence herbicidal activity, cocklebur; conditions: rate of application 0.3 Kg/Ha, rated after 12-17 days
Experimental: as §1, §2, §3, §4, §5

[13] = system: soybean (Glycine max var. Winchester); experiment: Preemergence herbicidal activity, soybean; conditions: Rate of Application 0.3 Kg/Ha, examined after 12-17 days
Experimental: as §1, §2, §3, §4, §5

[14] = system: common chickweed (Stellaria media); experiment: Postemergence herbicidal activity, chickweed; conditions: rate of application 0.3 Kg/Ha, rated after 12-17 days
Experimental: as §1, §2, §3, §4, §5

[15] = system: morningglory (Ipomea lacunosa or Ipomea hederacea); experiment: Preemergence herbicidal activity, morningglory; conditions: Rate of Application 0.3 Kg/Ha, examined after 12-17 days
Experimental: as §1, §2, §3, §4, §5

[16] = system: field corn (Zea mays var. Pioneer 3732); experiment: Preemergence herbicidal activity, corn; conditions: Rate of Application 0.3 Kg/Ha, examined after 12-17 days
Experimental: as §1, §2, §3, §4, §5

[17] = system: green foxtail (Setaria viridis); experiment: Postemergence herbicidal activity, green foxtail; conditions: rate of application 0.3 Kg/Ha, rated after 12-17 days
Experimental: as §1, §2, §3, §4, §5

[18] = system: morningglory (Ipomea lacunosa or Ipomea hederacea); experiment: Postemergence herbicidal activity, morningglory; conditions: rate of application 0.3 Kg/Ha, rated after 12-17 days
Experimental: as §1, §2, §3, §4, §5

| SMILES | Postemergence herbicidal activity (% control) SOY [1] | Postemergence herbicidal activity (% control) WHT [2] | Postemergence herbicidal activity (% control) ABUTH [3] | PREEMERGENCE HERBICIDAL ACTIVITY (% CONTROL) WHT [4] | PREEMERGENCE HERBICIDAL ACTIVITY (% CONTROL) STEME [5] | PREEMERGENCE HERBICIDAL ACTIVITY (% CONTROL) SETVI [6] | Postemergence herbicidal activity (% control) SORHA [7] | PREEMERGENCE HERBICIDAL ACTIVITY (% CONTROL) ABUTH [8] | PREEMERGENCE HERBICIDAL ACTIVITY (% CONTROL) SORHA [9] | Postemergence herbicidal activity (% control) CRN [10] | PREEMERGENCE HERBICIDAL ACTIVITY (% CONTROL) XANPE [11] | Postemergence herbicidal activity (% control) XANPE [12] | PREEMERGENCE HERBICIDAL ACTIVITY (% CONTROL) SOY [13] | Postemergence herbicidal activity (% control) STEME [14] | PREEMERGENCE HERBICIDAL ACTIVITY (% CONTROL) IPOSS [15] | PREEMERGENCE HERBICIDAL ACTIVITY (% CONTROL) CRN [16] | Postemergence herbicidal activity (% control) SETVI [17] | Postemergence herbicidal activity (% control) IPOSS [18] |
| --- | --- | --- | --- | --- | --- | --- | --- | --- | --- | --- | --- | --- | --- | --- | --- | --- | --- | --- |
| COC(=O)Cc1nc2c(-n3c(=O)cc(C(F)(F)F)n(C)c3=O)c(F)cc(Br)c2o1 [Compound 49] | 95% | 70% | 100% | 50% | 20% | 100% | 90% | 100% | 90% | 80% | 90% | 30% | 95% | 40% | 100% | 80% | 100% | 100% |
| CCCc1cc2c(Cl)cc(F)c(-n3c(=O)cc(C(F)(F)F)n(C)c3=O)c2o1 [Compound 223] | 95% | 40% | 100% | 50% | 100% | 100% | 100% | 100% | 100% | 90% | 90% | 100% | 100% | 100% | 100% | 80% | 100% | 100% |
| Cn1c(C(F)(F)F)cc(=O)n(-c2ccc(Cl)c3cc(C(C)(C)C)oc23)c1=O [Compound 226] | 70% | 40% | 100% | 50% | 90% | 100% | 80% | 100% | 80% | 80% | 60% | 90% | 70% | 80% | 90% | 70% | 100% | 95% |
| Cn1c(C(F)(F)F)cc(=O)n(-c2c(F)cc(F)c3cc(C(C)(C)C)oc23)c1=O [Compound 228] | 90% | 50% | 100% | 80% | 100% | 100% | 90% | 100% | 100% | 80% | 90% | 95% | 100% | 80% | 100% | 95% | 100% | 100% |
| Cn1c(C(F)(F)F)cc(=O)n(-c2ccc(Cl)c3cc(CBr)oc23)c1=O [Compound 232] | 75% | 50% | 100% | 30% | 20% | 40% | 10% | 90% | 25% | 30% | 10% | 40% | 20% | 20% | 80% | 50% | 30% | 80% |
| CC(=O)OC(C)(C)c1cc2c(Cl)cc(F)c(-n3c(=O)cc(C(F)(F)F)n(C)c3=O)c2o1 [Compound 253] | 95% | 100% | 100% | 95% | 100% | 100% | 100% | 100% | 100% | 100% |  | 100% | 100% | 100% | 100% | 100% | 100% | 100% |
